pIC50: −log10 of the molar value. Where two headings read alike, the source gives them in different places.
Assays:
[1] = target: T1, recombinant human transglutaminase 2 (Homo sapiens, UniProt P21980); assay: Transglutaminase assay: incorporation of dansylcadaverine into dimethylcasein (DCC-assay); assay type: biochemical; conditions: recombinant human TG2 10 nM, dansylcadaverine/dimethylcasein; read-out: IC50 TG2
T1 sequence (P21980 1-687): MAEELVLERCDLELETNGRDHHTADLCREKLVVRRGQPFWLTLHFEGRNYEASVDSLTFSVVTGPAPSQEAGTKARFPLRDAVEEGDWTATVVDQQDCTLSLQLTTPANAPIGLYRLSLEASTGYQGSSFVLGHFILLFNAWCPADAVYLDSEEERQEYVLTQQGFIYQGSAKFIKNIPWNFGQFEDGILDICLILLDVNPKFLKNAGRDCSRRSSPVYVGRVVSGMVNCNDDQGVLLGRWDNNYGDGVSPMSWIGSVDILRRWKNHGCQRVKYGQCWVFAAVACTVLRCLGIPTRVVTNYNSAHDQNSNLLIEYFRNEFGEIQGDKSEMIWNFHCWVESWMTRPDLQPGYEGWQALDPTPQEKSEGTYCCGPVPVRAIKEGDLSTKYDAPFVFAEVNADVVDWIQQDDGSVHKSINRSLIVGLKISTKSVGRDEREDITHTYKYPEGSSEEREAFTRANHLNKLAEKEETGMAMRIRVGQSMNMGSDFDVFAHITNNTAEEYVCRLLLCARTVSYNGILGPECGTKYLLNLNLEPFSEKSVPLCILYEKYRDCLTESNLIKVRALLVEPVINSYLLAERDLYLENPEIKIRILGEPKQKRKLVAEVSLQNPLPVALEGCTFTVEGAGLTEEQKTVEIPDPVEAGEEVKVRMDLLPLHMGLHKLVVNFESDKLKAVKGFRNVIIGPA
Method in brief: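 Recombinant human TG2 (10 nM final) incorporates dansylcadaverine (16.7 μM) into N,N-dimethylcasein (4 μM) in Tris-HCl buffer, pH 8.0, with 10 mM CaCl2 and 10 mM glutathione. Fluorescence (λex 330, λem 500 nm) followed 30 min. The slope between 20–30 min gives activity versus DMSO control, and IC50 comes from the concentration–activity plot.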

[2] = Log D by shake flask method (octanol / PBS pH 7.4, HPLC); assay type: physicochemical; conditions: octanol / PBS pH 7.4, shake flask
Method in brief: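 Log D is derived by HPLC measurement of how the compound distributes between octanol and pH 7.4 phosphate-buffered saline in a shake flask.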

[3] = Caco-2 permeability assay (CacoReady kit); assay type: in vitro ADME; conditions: human
Method in brief: (§1)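 Compounds are tested on pre-formed Caco-2 barriers supplied as a ready-to-use kit, following the kit protocol, and the Papp value is derived to estimate intestinal absorption.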

Caco-2 barrier = assay: Caco-2 permeability assay (CacoReady kit); assay type: in vitro ADME
Method in brief: as §1

SMILES	pIC50 [1]	logD ([2]; read-out: logD)	Papp [3] [×10⁻⁶ cm/s]	logD [2]	Papp (Caco-2 barrier)
CCNC(=O)C(=O)CC[C@H](NC(=O)c1c[nH]c(C(N)=O)c1)C(=O)Nc1cccn(CC(=O)NC23CC(C2)C3)c1=O [Compound I-111, (S)-N4-(1-(1-(2-(bicyclo[1.1.1]pentan-1-ylamino)-2-oxoethyl)-2-oxo-1,2-dihydropyridin-3-ylamino)-6-(ethylamino)-1,5,6-trioxohexan-2-yl)-1H-pyrrole-2,4-dicarboxamide]	5.46 to 6.22	< 1	< 1		
CCNC(=O)C(=O)CC[C@H](NC(=O)C1Cc2ccccc2C1)C(=O)Nc1cccn(CC(=O)NC2C3CC4CC(C3)CC2C4)c1=O (stereo partly drawn) [Compound I-39, (S)-2-(2,3-dihydro-1H-indene-2-carboxamido)-N6-ethyl-N1-(1-(2-(2-adamantylamino)-2-oxoethyl)-2-oxo-1,2-dihydropyridin-3-yl)-5-oxohexanediamide]	> 6.82	3 to 5	1 to 10		
CCNC(=O)C(=O)CC[C@H](NC(=O)c1cncn1C)C(=O)Nc1cccn(CC(=O)N(C)C23CC4CC(CC(C4)C2)C3)c1=O [Compound I-3, (S)-N1-ethyl-N6-(1-(2-(1-adamantyl(methyl)amino)-2-oxoethyl)-2-oxo-1,2-dihydropyridin-3-yl)-5-(1-methyl-1H-imidazole-5-carboxamido)-2-oxohexanediamide]	5.46 to 6.22	1 to 3	< 1		
CCNC(=O)C(=O)CC[C@H](NC(=O)c1oc2ccccc2c1CC)C(=O)Nc1cccn(CC(=O)NC23CC(C2)C3)c1=O [Compound I-101, (S)-N1-(1-(2-(bicyclo[1.1.1]pentan-1-ylamino)-2-oxoethyl)-2-oxo-1,2-dihydropyridin-3-yl)-N6-ethyl-2-(3-ethylbenzofuran-2-carboxamido)-5-oxohexanediamide]	6.22 to 6.82	< 1	1 to 10		
CCNC(=O)C(=O)CC[C@H](NC(=O)c1nc(Br)cs1)C(=O)Nc1cccn(CC(=O)NC2C3CC4CC(C3)CC2C4)c1=O (stereo partly drawn) [Compound I-50, (S)-2-(4-bromothiazole-2-carboxamido)-N6-ethyl-N1-(1-(2-(2-adamantylamino)-2-oxoethyl)-2-oxo-1,2-dihydropyridin-3-yl)-5-oxohexanediamide]	> 6.82	3 to 5	1 to 10		
CCNC(=O)C(=O)CC[C@H](NC(=O)c1sc(Br)cc1Br)C(=O)Nc1cccn(CC(=O)NC2C3CC4CC(C3)CC2C4)c1=O (stereo partly drawn) [Compound I-44, (S)-2-(3,5-dibromothiophene-2-carboxamido)-N6-ethyl-N1-(1-(2-(2-adamantylamino)-2-oxoethyl)-2-oxo-1,2-dihydropyridin-3-yl)-5-oxohexanediamide]	> 6.82	3 to 5	1 to 10		
CCNC(=O)C(=O)CC[C@H](NC(=O)c1cnsn1)C(=O)Nc1cccn(CC23CC4CC(CC(Br)(C4)C2)C3)c1=O [Compound I-83, (S)-N1-(1-((3-bromo-1-adamantyl)methyl)-2-oxo-1,2-dihydropyridin-3-yl)-N6-ethyl-5-oxo-2-(1,2,5-thiadiazole-3-carboxamido)hexanediamide]	6.22 to 6.82	3 to 5	< 1		
CCNC(=O)C(=O)CC[C@H](NC(=O)c1sc(C(F)(F)F)nc1C)C(=O)Nc1cccn(CC(=O)NC2C3CC4CC(C3)CC2C4)c1=O (stereo partly drawn) [Compound I-40, (S)-N1-ethyl-N6-(1-(2-(2-adamantylamino)-2-oxoethyl)-2-oxo-1,2-dihydropyridin-3-yl)-5-(4-methyl-2-(trifluoromethyl)thiazole-5-carboxamido)-2-oxohexanediamide]	> 6.82	1 to 3	1 to 10		
CCNC(=O)C(=O)CC[C@H](NC(=O)c1cc2ccccc2s1)C(=O)Nc1cccn(CC(=O)NC2C3CC4CC(C3)CC2C4)c1=O (stereo partly drawn) [Compound I-34, (S)-2-(benzo[b]thiophene-2-carboxamido)-N6-ethyl-N1-(1-(2-(2-adamantylamino)-2-oxoethyl)-2-oxo-1,2-dihydropyridin-3-yl)-5-oxohexanediamide]	> 6.82	3 to 5	1 to 10		
CCNC(=O)C(=O)CC[C@H](NC(=O)c1oc2ccccc2c1C)C(=O)Nc1cccn(CC(=O)NC2C3CC4CC(C3)CC2C4)c1=O (stereo partly drawn) [Compound I-31, (S)-N1-ethyl-N6-(1-(2-(2-adamantylamino)-2-oxoethyl)-2-oxo-1,2-dihydropyridin-3-yl)-5-(3-methylbenzofuran-2-carboxamido)-2-oxohexanediamide]	> 6.82	3 to 5	1 to 10		
CCNC(=O)C(=O)CC[C@H](NC(=O)c1ccn(C)n1)C(=O)Nc1cccn(CC(=O)N[C@]23C[C@H]4C5CC6CC4[C@H](C2)C(C6)[C@H]5C3)c1=O (single isomer, unassigned) [Compound I-80]				B (B: 1 ≤ logD < 3)	A (A: Papp < 1 × 10^−6 cm/s)
CCNC(=O)C(=O)CC[C@H](NC(=O)c1coc(S(N)(=O)=O)c1)C(=O)Nc1cccn(CC(=O)NC2C3CC4CC2CC(NC(C)=O)(C4)C3)c1=O (stereo partly drawn) [Compound I-112, (S)-N1-ethyl-N6-(1-(2-(1-acetylamino-4-aminoadamantane)-2-oxoethyl)-2-oxo-1,2-dihydropyridin-3-yl)-2-oxo-5-(5-sulfamoylfuran-3-carboxamido)hexanediamide]	5.46 to 6.22	< 1	< 1		
CCNC(=O)C(=O)CC[C@H](NC(=O)c1ccc2c(c1)CCCN2)C(=O)Nc1cccn(CC(=O)NC23CCC(C2)C3)c1=O [Compound I-104, (S)-N1-(1-(2-(bicyclo[2.1.1]hexan-1-ylamino)-2-oxoethyl)-2-oxo-1,2-dihydropyridin-3-yl)-N6-ethyl-5-oxo-2-(1,2,3,4-tetrahydroquinoline-6-carboxamido)hexanediamide]	5.46 to 6.22	< 1	< 1		
CCNC(=O)C(=O)CC[C@H](NC(=O)c1c[nH]cc1C(C)(C)C)C(=O)Nc1cccn(CCC23CC4CC(CC(C4)C2)C3)c1=O [Compound I-85]	5.46 to 6.22	3 to 5	1 to 10		
CCNC(=O)C(=O)CC[C@H](NC(=O)c1ccnn1C)C(=O)Nc1cccn(CC23CC4CC(CC(C4)C2)C3)c1=O [Compound I-81, (S)-N1-(1-(1-adamantylmethyl)-2-oxo-1,2-dihydropyridin-3-yl)-N6-ethyl-2-(1-methyl-1H-pyrazole-5-carboxamido)-5-oxohexanediamide]	6.22 to 6.82	1 to 3	< 1		
CCNC(=O)C(=O)CC[C@H](NC(=O)c1csc2nc(C)cn12)C(=O)Nc1cccn(CC(=O)NC2C3CC4CC(C3)CC2C4)c1=O (stereo partly drawn) [Compound I-96, (S)-N1-ethyl-N6-(1-(2-(2-adamantylamino)-2-oxoethyl)-2-oxo-1,2-dihydropyridin-3-yl)-5-(6-methylimidazo[2,1-b]thiazole-3-carboxamido)-2-oxohexanediamide]	5.46 to 6.22	3 to 5	< 1		
CCNC(=O)C(=O)CC[C@H](NC(=O)c1cnccn1)C(=O)Nc1cccn(CC(=O)NC2C3CC4CC2CC(O)(C4)C3)c1=O (stereo partly drawn) [Compound I-58, (S)-N1-ethyl-N6-(1-(2-(5-hydroxyadamantane-2-amino)-2-oxoethyl)-2-oxo-1,2-dihydropyridin-3-yl)-2-oxo-5-(pyrazine-2-carboxamido)hexanediamide]	6.22 to 6.82	< 1	< 1		
CCNC(=O)C(=O)CC[C@H](NC(=O)c1cncn1C)C(=O)Nc1cccn(CC(=O)NC23CC4CC(CC(C4)C2)C3)c1=O [Compound I-1, (S)-N1-ethyl-N6-(1-(2-(1-adamantylamino)-2-oxoethyl)-2-oxo-1,2-dihydropyridin-3-yl)-5-(1-methyl-1H-imidazole-5-carboxamido)-2-oxohexanediamide]	5.46 to 6.22	< 1	< 1		

— patent US20240270715A1, “INHIBITORS OF TRANSGLUTAMINASES” (ZEDIRA GMBH, priority 2021, published 2024)
